{"source": "patent US10072044B2", "about": "“Modified kisspeptin peptides and uses thereof” (Yeda Research and Development Co. Ltd., priority 2012, dated 2018)", "key": {"mice [1]": {"test_system": "mice", "experiment": "Catalepsy (bar test)", "format": "in vivo, mouse", "procedure": "Catalepsy is a state of immobility, and was measured by means of the bar test. The forepaws of the animal were placed on a bar (0.75 cm in diameter and 5 cm above the floor) and the latency until the mouse moved the forepaws off the bar was measured."}, "mice [2]": {"test_system": "mice", "experiment": "Open-field test (spontaneous activity)", "format": "in vivo, mouse", "text": "The open-field apparatus consisted of a white Plexiglas box (40×40×30 cm) with 16 squares (10×10 cm) painted on the floor (12 outer and 4 inner). Each mouse was placed in the center of the apparatus to initiate a 15-min test session. The number of entrances to the inner squares, time (min) spent in the inner squares, and total distance moved within the field (cm) were monitored."}, "mice [3]": {"test_system": "mice", "experiment": "Rotarod (forced activity)", "format": "in vivo, mouse", "procedure": "Forced activity (Rotarod) was analyzed using the Rotarod apparatus (Jones and Roberts 7650, Ugo Basile, Italy). Animals were placed on an accelerating rod, and time required for each mouse to fall from the rod was recorded. Out of three trails, the longest time taken for an animal to fall from the rod was recorded and used for analysis."}, "[4]": {"test_system": "MK-801 treated C57BL/6J mice", "experiment": "PPI in the MK-801 drug-induced model of schizophrenia", "format": "in vivo, mouse", "procedure": "MK-801 (Sigma) was used at 0.1 mg/kg and administered 15 min prior to the PPI analysis.\n(§1) Acoustic startle response testing was performed within startle chambers purchased from Med Associates, Inc. (Med Associates, St. Albans, Vt., USA), as described in Cardon et al., 2010. During a period of acclimation, a 65-decibel (dB) background noise was presented for 5-min, and continued throughout the test session. All sessions for testing of acoustic startle response consisted of startle trials (pulse alone, 40-milliseconds (ms), 120-dB), prepulse trials (prepulse 20-ms, 69, 73, 78, or 81 dB followed by a [100-ms delay] pulse), and no-stimulus trials. All sessions were presented in pseudo-random order. The average time between trials was 15 seconds (range 12-30 seconds). Startle response was calculated from the reaction to the first pulse-alone trial.\n(§2) PPI was calculated as: % PPI=100−{[(startle response for prepulse+pulse)/(startle response for pulse-alone)]×100}. Reduced PPI indicates schizophrenia-related behavior.\nMK-801 (an antagonist of the N-methyl-D-aspartate (NMDA) receptor channel) acts as a psychomimetic agent, inducing psychotic symptoms that mimic the cognitive impairment and behavioral abnormalities associated with schizophrenia.\nThe neurotransmitter imbalance induced by MK-801 causes PPI dysfunction, one of the characteristic features of patients with schizophrenia. In an experiment depicted in FIG. 2, C57BL/6J mice were injected with Kp-10 (13 μg/mouse, light gray bars), or with Peptides 6 (8.75 μg/mouse, medium gray bars) or 8 (8.75 μg/mouse, dark gray bars) dissolved in DMSO and then diluted in PBS to a final concentration of 0.2% (w/v) DMSO; the control group received 0.2% DMSO in PBS (black bars). After 15 min, MK-801 (0.1 mg/kg) was injected; 15 min later, measurement of the PPI was performed."}, "mice [5]": {"test_system": "mice", "experiment": "Sedative effect (sedative score)", "details": "data not shown", "procedure": "Sedative effect was evaluated by observing the mice and scoring their sedative state as follows: 0, spontaneous movement; 1, mild intermittent spontaneous movement; 2, severe intermittent spontaneous movement; 3, no spontaneous movement; 4, loss of auditory reflex; 5, loss of corneal reflex; 6, loss of response to tail pinch.\nSedative effect was evaluated by observing the animal using a sedative score."}, "[6]": {"experiment": "Plasma stability (HPLC, Cerep)", "format": "in vitro ADME", "details": "1 μM in human plasma", "procedure": "1 μM Peptide 6 was dissolved in human plasma, and peptide concentration was analyzed by HPLC after 0, 0.5, 1, 1.5, 2 h of incubation. The assay was performed by Cerep, Inc (Redmond, Wash., U.S.A)."}, "C57Bl/6J naïve mice": {"test_system": "C57Bl/6J naïve mice", "experiment": "Acoustic startle response / prepulse inhibition (PPI) in naïve mice", "format": "in vivo, mouse", "details": "30 min before test, prepulse 69, 73, 78 or 81 dB", "procedure": "as §1, §2\nTo test Peptide 2 (SEQ ID NO: 10), the peptide was dissolved in DMSO and then diluted in PBS to a final concentration of 1% (w/v) DMSO. Male C57Bl/6J naïve mice were injected intraperitoneally with 15 μg of the peptide or with 1% DMSO in PBS (control). Prepulse intensity analysis was performed after 30 minutes at 69, 73, 78 or 81 decibels. […]"}, "[7]": {"test_system": "SCID mice that have impaired PPI response and several schizophrenia mouse models", "details": "Kp-10 administration, WO 2010/137022; cited from earlier work"}, "BDNF mRNA": {"test_system": "BDNF mRNA", "details": "hippocampal slices (Arai et al., 2009); cited from earlier work"}, "naïve mice": {"test_system": "naïve mice", "details": "Kp-10, WO 2010/137022 (FIG. 10C); dose equivalent to 0.29 mg/kg Peptide 6; cited from earlier work"}, "[8]": {"details": "Kp-10, after 60 min (Chan et al., 2011); cited from earlier work"}, "several mouse models": {"test_system": "several mouse models", "details": "Kp-10, WO 2010/137022; cited from earlier work"}, "[9]": {"details": "13 μg/mouse, MK-801 0.1 mg/kg after 15 min, PPI 15 min later"}}, "note": "“Also recorded” adds a separate entry of the source. Bridge positions count the residues as written; N and C are the ends. Ends that are not written are not given here.", "data": [{"compound": "O=C(CCCN1CCC(O)(c2ccc(Cl)cc2)CC1)c1ccc(F)cc1", "note": "[Haloperidol]", "values": [{"measurement": "catalepsy effect", "setting": "mice [1]; 1 mg/kg i.p.", "result": "had catalepsy effects"}, {"measurement": "spontaneous activity in the open field", "setting": "mice [2]; 1 mg/kg i.p.", "result": "reduced mice activity"}, {"measurement": "forced activity in the Rotarod", "setting": "mice [3]; 1 mg/kg i.p.", "result": "reduced mice activity"}]}, {"compound": "C[C@]12N[C@H](Cc3ccccc31)c1ccccc12", "note": "[MK-801]", "values": [{"measurement": "PPI response compared to PBS injected control", "setting": "[4]; MK-801 alone 0.1 mg/kg, 15 min before PPI", "result": "the PPI response was reduced compared to the PBS injected control"}]}, {"compound": "Cc1cc2c(s1)Nc1ccccc1N=C2N1CCN(C)CC1", "note": "[Olanzapine]", "values": [{"measurement": "highest dose that can be injected without causing sedative effects (chosen dose)", "setting": "mice [5]", "result": 0.375, "unit": "mg/kg"}]}, {"compound": "CC(C)C[C@@H]1NC(=O)CNC(=O)[C@H](Cc2ccccc2)NC(=O)[C@@H](N)Cc2ccc(cc2)N=Nc2cc(ccc2O)C[C@@H](C(N)=O)NC(=O)[C@H](Cc2c[nH]c3ccccc23)NC(=O)[C@H](CCCNC(=N)N)NC1=O", "note": "[Peptide 6, Pap-Phe-Gly-Leu-Arg-Trp-Tyr-NH2]", "values": [{"measurement": "catalepsy effect", "setting": "mice [1]; 0.29 and 2.9 mg/kg i.p.", "result": "did not have catalepsy effect at either dosage tested"}, {"measurement": "% Mean Compound Remaining", "setting": "[6]; incubation time 0 minutes", "result": 100.0, "unit": "%"}, {"measurement": "remaining at 0.5 h, 1 μM", "setting": "[6]; incubation time 30 minutes, read-out: % Mean Compound Remaining", "result": 119, "unit": "%"}, {"measurement": "% Mean Compound Remaining", "setting": "[6]; incubation time 60 minutes", "result": 94, "unit": "%"}, {"measurement": "remaining at 1 h, 1 μM", "setting": "[6]; incubation time 60 minutes, read-out: % Mean Compound Remaining", "result": 93.7, "unit": "%"}, {"measurement": "remaining at 1.5 h, 1 μM", "setting": "[6]; incubation time 90 minutes, read-out: % Mean Compound Remaining", "result": 97.2, "unit": "%"}, {"measurement": "remaining at 2 h, 1 μM", "setting": "[6]; incubation time 120 minutes, read-out: % Mean Compound Remaining", "result": 71.8, "unit": "%"}, {"measurement": "half-life", "setting": "[6]; read-out: calculated half-life", "result": "> 120", "unit": "min"}, {"measurement": "spontaneous activity in the open field", "setting": "mice [2]; 0.29 and 2.9 mg/kg i.p.", "result": "did not affect activity level"}, {"measurement": "forced activity in the Rotarod", "setting": "mice [3]; 0.29 and 2.9 mg/kg i.p.", "result": "did not affect activity level"}]}, {"compound": "Cc1nc2n(c(=O)c1CCN1CCC(c3noc4cc(F)ccc34)CC1)CCCC2", "note": "[Risperidone]", "values": [{"measurement": "highest dose that can be injected without causing sedative effects (chosen dose)", "setting": "mice [5]", "result": 0.1, "unit": "mg/kg"}, {"measurement": "PPI in MK-801 treated mice", "setting": "[4]; 0.1 mg/kg i.p. with MK-801 (FIG. 4B)", "result": "elevated PPI in the MK-801 treated mice"}]}, {"compound": "Peptide 2: cystine (S—S) cyclic modified Kp-10 derived peptide, used for comparison only (CYNWNSFGLRFC-NH2; disulfide 1-12; N-terminus assumed; SMILES CC(C)C[C@@H]1NC(=O)CNC(=O)[C@H](Cc2ccccc2)NC(=O)[C@H](CO)NC(=O)[C@H](CC(N)=O)NC(=O)[C@H](Cc2c[nH]c3ccccc23)NC(=O)[C@H](CC(N)=O)NC(=O)[C@H](Cc2ccc(O)cc2)NC(=O)[C@@H](N)CSSC[C@@H](C(N)=O)NC(=O)[C@H](Cc2ccccc2)NC(=O)[C@H](CCCNC(=N)N)NC1=O)", "values": [{"measurement": "% PPI relative to controls", "setting": "C57Bl/6J naïve mice; 15 μg peptide i.p. in 1% DMSO in PBS", "result": "slightly improved the % PPI relative to controls, however, the effect was not significant; also recorded: did not significantly improve the PPI response"}]}, {"compound": "Peptide 5: cystine (S—S) cyclic modified Kp-10 derived peptide, used for comparison only (CFGLRWC-NH2; disulfide 1-7; N-terminus assumed; SMILES CC(C)C[C@@H]1NC(=O)CNC(=O)[C@H](Cc2ccccc2)NC(=O)[C@@H](N)CSSC[C@@H](C(N)=O)NC(=O)[C@H](Cc2c[nH]c3ccccc23)NC(=O)[C@H](CCCNC(=N)N)NC1=O)", "values": [{"measurement": "% PPI relative to controls", "setting": "C57Bl/6J naïve mice; 8.3 μg peptide i.p. in 1% DMSO in PBS", "result": "slightly improved the % PPI at 73, 78 and 81 decibels relative to controls, however, the effect was not significant; also recorded: did not significantly improve the PPI response"}]}, {"compound": "YNWNSFGLRF-NH2 [Kp-10]", "values": [{"measurement": "PPI response levels", "setting": "[7]", "result": "improved PPI response levels"}, {"measurement": "BDNF mRNA levels", "setting": "BDNF mRNA", "result": "elevate BDNF mRNA levels"}, {"measurement": "PPI compared to MK-801 treated animals", "setting": "[4]; [9]", "result": "significantly improved PPI compared to the MK-801 treated animals; also recorded: significantly improved PPI compared to animals treated only with MK-801"}, {"measurement": "PPI compared to control without MK-801 (restoration to normal)", "setting": "[4]; [9]", "result": "improved PPI after MK-801 administration but did not abolish its affect"}, {"measurement": "antidepressant effect / total immobility in tail suspension test", "setting": "naïve mice", "result": "antidepressant effect; also recorded: potential anti-depressive activity; also recorded: reduced the total immobility"}, {"measurement": "level after 60 min", "setting": "[8]", "result": "below detectable level"}, {"measurement": "spatial learning and memory in a water maze", "setting": "several mouse models", "result": "improves spatial learning and memory in a water maze"}]}]}
